Assay results from patent US7211566B2 (Universite De Sherbrooke, priority 2003, dated 2007).
Square brackets hold non-standard residues; d marks the D form. Peptide text beside a SMILES is read from it. Oic = O=C(O)[C@@H]1C[C@@H]2CCCC[C@@H]2N1; d2Nal = N[C@H](Cc1ccc2ccccc2c1)C(=O)O; αMeF = C[C@](N)(Cc1ccccc1)C(=O)O; Orn = NCCC[C@H](N)C(=O)O

What was measured:
[1] = biological target: T1, BKB2 receptor (Oryctolagus cuniculus, UniProt Q28642); assay: Isolated rabbit jugular vein (rbJV) organ bath, antagonist potency pA2; format: cell-based; details: BK as agonist, read-out: Antagonist potencies (pA2) BKB2-R rbJV (converted)
T1 construct: The rabbit jugular vein (a pure BKB2 receptor system); from tissue; host or cells: isolated rabbit jugular vein (rbJV)
T1 sequence (Q28642 1-367): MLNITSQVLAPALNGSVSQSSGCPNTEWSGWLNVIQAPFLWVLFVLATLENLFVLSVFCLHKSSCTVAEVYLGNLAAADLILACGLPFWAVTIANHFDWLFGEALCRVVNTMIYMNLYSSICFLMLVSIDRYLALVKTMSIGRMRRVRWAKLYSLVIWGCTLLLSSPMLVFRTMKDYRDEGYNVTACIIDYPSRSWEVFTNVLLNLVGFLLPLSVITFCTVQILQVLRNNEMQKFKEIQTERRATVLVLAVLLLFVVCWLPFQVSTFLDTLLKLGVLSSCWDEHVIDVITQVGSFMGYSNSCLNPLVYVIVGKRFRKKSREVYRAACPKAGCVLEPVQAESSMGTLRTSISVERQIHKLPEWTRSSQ
Experimental: Selected antagonists were tested for activities in three isolated organs: (1) the rabbit aorta (rbA), (2) the human umbilical vein (hUV) and (3) the rabbit jugular vein (rbJV).
All details regarding the procurements of human umbilical cords and rabbit vessels as well as, the procedures for preparing the isolated organs and the experimental protocols are described in these respective publications: rbA (Rioux et al. 1973, Can J Physiol Pharmacol 51, 114–121); hUV (Gobeil et al. 1996, Br J Pharmacol 118, 289–294), and rbJV (Gaudreau et al. 1981, Can J Physiol Pharmacol 59, 371–379).
The rabbit jugular vein (a pure BKB2 receptor system) was used to exclude any action of the new compounds on the BKB2 receptor and thus establish their selectivity. All tissues were treated with captopril (1 μM) to prevent the degradation of the peptidic agonists.
Repeated applications of a single and double concentration of BK (on rbJV,) or of desArg^9BK (rbA and hUV) were made in the absence and in presence of the various peptides to evaluate their apparent affinities as antagonists, in terms of pA2 (-log10 of the molar concentration of antagonist that reduces the effect of a double concentration of agonist to that of a single one) (Schild 1947, Br J Pharmacol 2, 189–206).

[2] = biological target: T2, angiotensin converting enzyme (ACE) (Oryctolagus cuniculus, UniProt P12822); assay: In vitro metabolic stability against purified rabbit lung ACE; format: in vitro ADME; details: purified angiotensin converting enzyme from rabbit lung, pH 7.5, peptide 200 μM, 60 min at 37° C., mean ± SEM of 3, read-out: Peptide metabolism (%) Rabbit lung ACE
T2 construct: In Vitro Biochemical Stability Assays Against Purified Native Enzymes; purchased Sigma, St. Louis, Mo; host or cells: rabbit lung
T2 sequence (P12822 34-1310): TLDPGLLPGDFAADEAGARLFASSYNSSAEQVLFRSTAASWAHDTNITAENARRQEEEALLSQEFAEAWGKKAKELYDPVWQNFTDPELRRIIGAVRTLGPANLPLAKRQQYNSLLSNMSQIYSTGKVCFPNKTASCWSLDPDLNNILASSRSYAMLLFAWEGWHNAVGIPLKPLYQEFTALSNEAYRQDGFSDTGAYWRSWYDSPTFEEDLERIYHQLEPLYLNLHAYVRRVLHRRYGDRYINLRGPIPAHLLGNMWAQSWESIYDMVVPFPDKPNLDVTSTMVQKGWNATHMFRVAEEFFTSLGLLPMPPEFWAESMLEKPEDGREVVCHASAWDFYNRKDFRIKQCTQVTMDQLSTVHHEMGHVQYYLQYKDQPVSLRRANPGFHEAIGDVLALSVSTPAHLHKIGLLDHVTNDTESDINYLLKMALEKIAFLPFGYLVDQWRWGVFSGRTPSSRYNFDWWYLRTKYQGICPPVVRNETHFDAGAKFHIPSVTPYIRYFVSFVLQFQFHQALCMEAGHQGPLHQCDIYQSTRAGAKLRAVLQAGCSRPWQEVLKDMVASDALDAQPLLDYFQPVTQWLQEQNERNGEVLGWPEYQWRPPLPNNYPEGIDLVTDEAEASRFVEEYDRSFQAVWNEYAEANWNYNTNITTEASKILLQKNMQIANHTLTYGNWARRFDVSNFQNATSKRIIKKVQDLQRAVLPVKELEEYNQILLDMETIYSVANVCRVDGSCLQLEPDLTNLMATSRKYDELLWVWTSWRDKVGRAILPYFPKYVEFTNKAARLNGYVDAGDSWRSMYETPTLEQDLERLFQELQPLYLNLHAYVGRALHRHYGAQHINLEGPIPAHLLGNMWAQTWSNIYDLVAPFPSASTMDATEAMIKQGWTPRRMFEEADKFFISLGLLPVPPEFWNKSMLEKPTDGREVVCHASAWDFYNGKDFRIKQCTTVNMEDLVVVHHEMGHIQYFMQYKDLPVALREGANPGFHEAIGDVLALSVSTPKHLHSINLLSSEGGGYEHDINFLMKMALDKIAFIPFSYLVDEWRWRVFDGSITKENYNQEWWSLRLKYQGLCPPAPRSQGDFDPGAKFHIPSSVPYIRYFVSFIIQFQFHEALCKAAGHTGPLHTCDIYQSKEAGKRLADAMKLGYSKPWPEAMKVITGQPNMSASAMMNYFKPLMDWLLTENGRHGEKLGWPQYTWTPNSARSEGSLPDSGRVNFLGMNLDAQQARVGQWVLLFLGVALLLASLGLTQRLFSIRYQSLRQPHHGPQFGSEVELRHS
Experimental: These assays were performed using three enzyme preparations: purified angiotensin converting enzyme (ACE; from rabbit lung), human plasma as a, source of aminopeptidase M (AmM) and human platelets as a source of aminopeptidase P (AmP).
Purified ACE from rabbit lungs (Sigma, St. Louis, Mo.) was dissolved in PBS (50 mM, pH 7.5, containing 300 mM NaCl and 10 μM ZnCl2; the final concentration of ACE was 45 μg/ml). Each of the peptide antagonists (200 μM) was incubated for 60 min at 37° C. with ACE (8.5 μl) (total volume medium, 187.5 μl). The enzymatic reaction was then terminated by boiling.
The experimental protocol for the measurement of ACE activity has been described elsewhere (Drapeau et a). 1993, J Pharmacol Exp Ther 266, 192–198; Gobeil et al., 1996, supra).

Row | SMILES | Kb [1] | metabolised at 1 h, 200 µM [2]
1 | CC[C@H](C)[C@H](NC(=O)[C@@H](Cc1ccc2ccccc2c1)NC(=O)[C@H](CO)NC(=O)[C@](C)(Cc1ccccc1)NC(=O)CNC(=O)[C@@H]1CCCN1C(=O)[C@@H]1C[C@@H]2CCCC[C@@H]2N1C(=O)[C@H](CCCNC(=N)N)NC(=O)[C@H](CCCN)NC(C)=O)C(=O)O [compound c, Ac-Orn[Oic^2,(α-Me)Phe^5,D-βNal^7,Ile^8]desArg^9BK] (Ac-[Orn]R[Oic]PG[αMeF]S[d2Nal]I-OH) | > 1000 nM | 0%
2 | CC[C@H](C)[C@H](NC(=O)[C@@H](Cc1ccc2ccccc2c1)NC(=O)[C@H](CO)NC(=O)[C@](C)(Cc1ccccc1)NC(=O)CNC(=O)[C@@H]1CCCN1C(=O)[C@@H]1C[C@@H]2CCCC[C@@H]2N1C(=O)[C@H](CCCNC(=N)N)NC(=O)[C@H](CCCCN)NC(C)=O)C(=O)O [Ac-Lys[Oic^2,(α-Me)Phe^5,D-βNal^7,Ile^8]desArg^9BK] (Ac-KR[Oic]PG[αMeF]S[d2Nal]I-OH) | > 1000 nM | 0%
